The target in one experiment is T1, Monoamine Oxidase MAO-A (Homo sapiens, UniProt P21397).
T1 construct: host or cells: Insect Hi5 cells
T1 sequence (P21397 1-527): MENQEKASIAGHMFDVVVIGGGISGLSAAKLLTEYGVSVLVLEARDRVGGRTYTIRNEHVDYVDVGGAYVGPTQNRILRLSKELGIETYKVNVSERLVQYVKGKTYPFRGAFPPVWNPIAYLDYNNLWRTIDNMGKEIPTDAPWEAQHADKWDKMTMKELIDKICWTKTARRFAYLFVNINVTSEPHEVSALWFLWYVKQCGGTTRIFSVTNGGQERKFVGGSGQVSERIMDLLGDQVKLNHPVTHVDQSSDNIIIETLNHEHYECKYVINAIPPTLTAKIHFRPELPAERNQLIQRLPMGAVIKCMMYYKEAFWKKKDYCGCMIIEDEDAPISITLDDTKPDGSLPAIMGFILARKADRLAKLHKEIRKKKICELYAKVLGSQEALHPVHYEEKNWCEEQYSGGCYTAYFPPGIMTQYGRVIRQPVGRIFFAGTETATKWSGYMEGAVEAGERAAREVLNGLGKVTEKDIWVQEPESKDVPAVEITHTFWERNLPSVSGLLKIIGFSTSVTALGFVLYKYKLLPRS
The experiment in a line: Monoamine Oxidase MAO-A. It counts as biochemical. The note with it: for remaining activity at 10 µM: read-out: % Control Response.

A further experiment concerns the target T2, ATAD2A (h) bromodomain (Homo sapiens, UniProt Q6PL18).
T2 construct: Bromodomain
T2 sequence (Q6PL18 980-1092 limits assumed): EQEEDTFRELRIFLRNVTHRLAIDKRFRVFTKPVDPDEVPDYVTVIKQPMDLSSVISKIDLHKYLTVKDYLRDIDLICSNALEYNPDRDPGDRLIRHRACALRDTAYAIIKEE
The experiment can be described thus: Epigenetic binding assay, Bromodomain. Particulars: for inhibition at 10 µM: read-out: % Inhibition of Control Specific Binding.

The target in a further experiment is PHF8(h) (Homo sapiens, UniProt Q9UPP1). The experiment in a line: Epigenetic enzyme assay, Demethylases (KDMs). It is filed as biochemical. The note with it: read-out: % Inhibition of Control Values.
For another experiment, the target named is hSMYD2 (Homo sapiens, UniProt Q9NRG4). The experiment can be described thus: Epigenetic enzyme assay, Methyltransferases (MTs). It is filed as biochemical. Particulars: for inhibition at 10 µM: read-out: % Inhibition of Control Values.
For experiment [1], the target named is T3, IKK alpha(h) (substrate histone H3 full length) (Homo sapiens, UniProt O15111).
T3 sequence (O15111 1-745): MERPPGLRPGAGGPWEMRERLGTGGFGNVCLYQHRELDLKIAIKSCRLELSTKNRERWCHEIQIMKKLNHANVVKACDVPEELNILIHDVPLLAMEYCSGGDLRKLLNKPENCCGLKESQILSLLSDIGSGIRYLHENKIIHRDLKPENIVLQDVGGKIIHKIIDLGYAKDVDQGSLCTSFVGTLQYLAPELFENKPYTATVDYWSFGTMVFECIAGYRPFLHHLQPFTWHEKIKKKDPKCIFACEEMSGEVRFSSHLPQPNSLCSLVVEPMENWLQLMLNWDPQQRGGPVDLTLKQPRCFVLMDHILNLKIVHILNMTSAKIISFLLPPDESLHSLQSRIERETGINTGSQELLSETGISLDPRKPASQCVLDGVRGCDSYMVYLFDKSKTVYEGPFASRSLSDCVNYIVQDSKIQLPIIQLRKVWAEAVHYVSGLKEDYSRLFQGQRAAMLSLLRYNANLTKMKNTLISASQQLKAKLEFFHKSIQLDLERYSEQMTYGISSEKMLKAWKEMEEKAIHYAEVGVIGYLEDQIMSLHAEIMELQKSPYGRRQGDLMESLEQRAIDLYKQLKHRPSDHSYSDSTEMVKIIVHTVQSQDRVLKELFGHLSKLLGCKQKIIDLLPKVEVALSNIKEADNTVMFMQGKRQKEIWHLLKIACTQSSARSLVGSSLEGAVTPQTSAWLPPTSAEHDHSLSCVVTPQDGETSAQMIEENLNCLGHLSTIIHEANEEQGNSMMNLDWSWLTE
The experiment can be described thus: Epigenetic enzyme assay, Kinases. It counts as biochemical. The note with it: read-out: % Inhibition of Control Values.

Experiment [2] deals with T4, sirtuin 3 (h) (inhibitor effect) (Homo sapiens, UniProt Q9NTG7).
T4 sequence (Q9NTG7 1-399): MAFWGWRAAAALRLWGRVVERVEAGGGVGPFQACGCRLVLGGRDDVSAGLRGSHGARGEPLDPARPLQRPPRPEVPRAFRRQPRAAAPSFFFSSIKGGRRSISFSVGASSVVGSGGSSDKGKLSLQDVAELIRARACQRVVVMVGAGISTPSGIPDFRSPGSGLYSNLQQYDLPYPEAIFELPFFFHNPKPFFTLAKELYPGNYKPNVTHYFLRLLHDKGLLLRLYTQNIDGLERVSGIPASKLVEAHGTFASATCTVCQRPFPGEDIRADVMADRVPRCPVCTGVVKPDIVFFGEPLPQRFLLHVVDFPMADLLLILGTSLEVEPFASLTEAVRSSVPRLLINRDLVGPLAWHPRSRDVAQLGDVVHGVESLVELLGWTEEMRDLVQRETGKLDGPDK
The experiment can be described thus: Epigenetic enzyme assay, Sirtuins. It counts as biochemical. The note with it: read-out: % Inhibition of Control Values.

Another experiment has as its target SUV4-20H2 (h) (Homo sapiens, UniProt Q86Y97). The experiment can be described thus: Epigenetic enzyme assay, Methyltransferases (MTs). It counts as biochemical. Particulars: for inhibition at 10 µM: read-out: % Inhibition of Control Values.
Another experiment concerns the target T5, PCAF (h) bromodomain (Homo sapiens, UniProt Q92831).
T5 construct: Bromodomain
T5 sequence (Q92831 723-827 limits assumed): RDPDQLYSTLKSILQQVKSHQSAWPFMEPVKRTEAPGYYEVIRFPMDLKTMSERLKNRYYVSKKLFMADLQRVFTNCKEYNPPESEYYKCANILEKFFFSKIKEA
The experiment can be described thus: Epigenetic binding assay, Bromodomain. Particulars: 10 μM; read-out: % Inhibition of Control Specific Binding.

Structures are written as SMILES. Where “and” joins values, the source holds several entries; their conditions need not be identical. Equal entries are not always repeated.

PHF8(h), sequence (Q9UPP1 whole entry): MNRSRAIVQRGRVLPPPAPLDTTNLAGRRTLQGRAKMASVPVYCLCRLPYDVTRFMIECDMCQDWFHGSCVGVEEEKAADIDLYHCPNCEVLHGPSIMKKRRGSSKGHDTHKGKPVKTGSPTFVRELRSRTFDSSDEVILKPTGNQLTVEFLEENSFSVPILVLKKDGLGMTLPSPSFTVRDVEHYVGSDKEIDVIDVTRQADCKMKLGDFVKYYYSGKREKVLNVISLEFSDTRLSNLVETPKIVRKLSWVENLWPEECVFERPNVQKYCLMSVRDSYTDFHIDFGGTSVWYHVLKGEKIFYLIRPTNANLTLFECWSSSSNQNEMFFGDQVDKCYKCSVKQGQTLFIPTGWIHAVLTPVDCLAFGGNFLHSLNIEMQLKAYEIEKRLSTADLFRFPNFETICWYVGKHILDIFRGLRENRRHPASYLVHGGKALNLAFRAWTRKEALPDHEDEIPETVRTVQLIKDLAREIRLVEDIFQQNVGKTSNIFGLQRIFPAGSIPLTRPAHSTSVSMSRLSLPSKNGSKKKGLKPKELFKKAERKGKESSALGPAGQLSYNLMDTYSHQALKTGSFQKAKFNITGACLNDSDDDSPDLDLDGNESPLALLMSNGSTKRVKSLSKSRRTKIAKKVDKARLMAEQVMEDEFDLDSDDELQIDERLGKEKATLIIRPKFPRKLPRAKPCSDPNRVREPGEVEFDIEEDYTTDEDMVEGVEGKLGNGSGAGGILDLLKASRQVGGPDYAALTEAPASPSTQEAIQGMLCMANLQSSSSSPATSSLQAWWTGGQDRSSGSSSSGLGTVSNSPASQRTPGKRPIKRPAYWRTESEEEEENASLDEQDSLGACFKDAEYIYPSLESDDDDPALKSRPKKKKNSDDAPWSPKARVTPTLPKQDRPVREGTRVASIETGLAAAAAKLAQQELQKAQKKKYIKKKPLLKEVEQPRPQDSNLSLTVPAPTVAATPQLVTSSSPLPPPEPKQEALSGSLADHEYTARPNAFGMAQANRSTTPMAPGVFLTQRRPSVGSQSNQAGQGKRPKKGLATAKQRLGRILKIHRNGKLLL
hSMYD2, sequence (Q9NRG4 whole entry): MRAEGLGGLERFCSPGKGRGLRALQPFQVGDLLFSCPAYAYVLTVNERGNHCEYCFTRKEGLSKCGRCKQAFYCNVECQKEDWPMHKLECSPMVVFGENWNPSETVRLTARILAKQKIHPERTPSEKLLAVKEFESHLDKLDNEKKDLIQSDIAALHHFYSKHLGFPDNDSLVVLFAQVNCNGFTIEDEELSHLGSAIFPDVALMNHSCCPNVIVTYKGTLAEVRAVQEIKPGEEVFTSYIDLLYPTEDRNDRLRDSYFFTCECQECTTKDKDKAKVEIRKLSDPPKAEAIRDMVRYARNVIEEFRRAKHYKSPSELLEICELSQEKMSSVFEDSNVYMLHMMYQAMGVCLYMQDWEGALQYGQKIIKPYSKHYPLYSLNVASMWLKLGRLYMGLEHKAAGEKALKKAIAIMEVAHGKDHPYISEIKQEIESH
SUV4-20H2 (h), sequence (Q86Y97 whole entry): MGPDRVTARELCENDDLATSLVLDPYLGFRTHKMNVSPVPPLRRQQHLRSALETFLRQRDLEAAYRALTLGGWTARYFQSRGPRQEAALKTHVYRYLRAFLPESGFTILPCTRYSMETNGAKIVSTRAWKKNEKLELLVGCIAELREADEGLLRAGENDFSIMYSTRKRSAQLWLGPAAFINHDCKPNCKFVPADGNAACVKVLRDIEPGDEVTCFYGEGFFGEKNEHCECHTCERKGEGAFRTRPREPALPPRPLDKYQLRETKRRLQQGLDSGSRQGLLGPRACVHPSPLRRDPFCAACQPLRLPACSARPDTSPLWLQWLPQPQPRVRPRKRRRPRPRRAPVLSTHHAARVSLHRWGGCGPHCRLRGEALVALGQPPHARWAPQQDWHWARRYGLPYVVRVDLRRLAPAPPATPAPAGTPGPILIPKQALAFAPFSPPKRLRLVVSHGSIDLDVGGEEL

By IC50 is commonly meant the concentration that gives 50% inhibition. Usually inhibition stands for the drop in the measured response relative to a control, in per cent. As for `CC(C)=CCC[C@H](CO)[C@@H]1CC[C@@H](C)c2c1cc(C)c(O)c2O` [Compound 1, 7,8,18-trihydroxyserrulat-14-ene], the “% Control Response” value on Monoamine Oxidase MAO-A (10 μM, assay year 2015) is recorded as “potent inhibitor”. The remaining activity at 10 µM on Monoamine Oxidase MAO-A (10 μM, assay year 2015) was 91%. Moreover, the 50% inhibitory concentration (IC50) was 6.47 µM and 6.74 µM at Monoamine Oxidase MAO-A (concentration-response 10 to 0.01 μM); 3.1 µM at ATAD2A (h) bromodomain (Table 9, inhibition/concentration-response curve, read-out: IC50). Further, the “% Inhibition of Control Specific Binding” value on ATAD2A (h) bromodomain (10 μM) is on record as “significant inhibitory activity”. In addition, the inhibition at 10 µM on ATAD2A (h) bromodomain (10 μM) was 100%; at PHF8(h), 36%; at hSMYD2, 12%; in experiment [1], 26%; in experiment [2], -14%; on SUV4-20H2 (h) it was 11%. The inhibition at 10 µM at PCAF (h) bromodomain came to 37%.

Regarding `CC(C)=CCC[C@@H]1COc2c(C)cc(O)c3c2[C@H]1CC[C@H]3C` [Compound 3, 5,18-epoxy-8-hydroxyserrulat-14-ene], the remaining activity at 10 µM on Monoamine Oxidase MAO-A (10 μM, assay year 2015) turned out to be 27%. Also, the inhibition at 10 µM at ATAD2A (h) bromodomain (10 μM) is 9%; at PHF8(h) it was 13%; at hSMYD2, -12%; in experiment [1], 14%; in experiment [2] it was -3%; on SUV4-20H2 (h) it was -45%. Besides, the inhibition at 10 µM at PCAF (h) bromodomain was 3%.

As to `CC(C)=CCC[C@@H]1C(O)Oc2c(C)cc(O)c3c2[C@H]1CC[C@H]3C` (stereo partly drawn) [Compound 2, 5,18-epoxyserrulat-14-en-8,18-diol], the remaining activity at 10 µM on Monoamine Oxidase MAO-A (10 μM, assay year 2015) worked out at 34%. Also, the inhibition at 10 µM is 16% at ATAD2A (h) bromodomain (10 μM); -11% on PHF8(h); 5% on hSMYD2; 28% in experiment [1]; -8% in experiment [2]; 20% on SUV4-20H2 (h). Besides, on PCAF (h) bromodomain, the inhibition at 10 µM came to 16%.

Consider `Nc1ncnc2c1ncn2[C@@H]1O[C@H](CSCC[C@H](N)C(=O)O)[C@@H](O)[C@H]1O` [SAH], for which the IC50 stood at 0.16 µM at hSMYD2 (read-out: Reference IC50) and 4.7 µM on SUV4-20H2 (h) (read-out: Reference IC50).

The values are drawn from patent publication US11331299B2, “Medicinal use of serrulatane diterpenes” (The University of Sydney, priority 2016, dated 2022).
